Test: xn = mol fraction of the nth substance listed
Settings: 101.3 kPa, Liquid

Cc1cccc(C)c1 [1,3-dimethylbenzene] + C[S+](C)[O-]
Settings | mass density [kg/m3]
293.15 K, x1 = 0.0679 | 1074.3
293.15 K, x1 = 0.1489 | 1046.5
293.15 K, x1 = 0.2044 | 1028.97
293.15 K, x1 = 0.2613 | 1012.13
293.15 K, x1 = 0.3487 | 988.35
293.15 K, x1 = 0.3975 | 976.03
293.15 K, x1 = 0.4578 | 961.7
293.15 K, x1 = 0.5244 | 946.87
293.15 K, x1 = 0.5896 | 933.28
293.15 K, x1 = 0.6597 | 919.61
293.15 K, x1 = 0.7393 | 905.13
293.15 K, x1 = 0.8218 | 891.15
293.15 K, x1 = 0.8835 | 881.33
293.15 K, x1 = 0.9412 | 872.62
303.15 K, x1 = 0.0735 | 1063.89
303.15 K, x1 = 0.1579 | 1035.01
303.15 K, x1 = 0.2387 | 1010.01
303.15 K, x1 = 0.3087 | 990.22
303.15 K, x1 = 0.3754 | 972.78
303.15 K, x1 = 0.4147 | 963.09
303.15 K, x1 = 0.4892 | 945.8
303.15 K, x1 = 0.5539 | 931.86
303.15 K, x1 = 0.6209 | 918.33
303.15 K, x1 = 0.6902 | 905.23
303.15 K, x1 = 0.7532 | 894.02
303.15 K, x1 = 0.8149 | 883.65
303.15 K, x1 = 0.8687 | 875.05
303.15 K, x1 = 0.9373 | 864.64
313.15 K, x1 = 0.0854 | 1051.04
313.15 K, x1 = 0.1527 | 1028.01
313.15 K, x1 = 0.2357 | 1002.14
313.15 K, x1 = 0.2978 | 984.4
313.15 K, x1 = 0.3576 | 968.48
313.15 K, x1 = 0.4077 | 955.97
313.15 K, x1 = 0.4676 | 941.86
313.15 K, x1 = 0.5239 | 929.42
313.15 K, x1 = 0.5823 | 917.24
313.15 K, x1 = 0.6521 | 903.59
313.15 K, x1 = 0.7389 | 887.82
313.15 K, x1 = 0.7912 | 878.91
313.15 K, x1 = 0.8513 | 869.17
313.15 K, x1 = 0.9327 | 856.77
323.15 K, x1 = 0.0746 | 1046.35
323.15 K, x1 = 0.1647 | 1015.41
323.15 K, x1 = 0.2138 | 999.97
323.15 K, x1 = 0.2847 | 979.25
323.15 K, x1 = 0.3579 | 959.6
323.15 K, x1 = 0.4135 | 945.75
323.15 K, x1 = 0.4724 | 931.98
323.15 K, x1 = 0.5249 | 920.42
323.15 K, x1 = 0.6038 | 904.17
323.15 K, x1 = 0.6739 | 890.78
323.15 K, x1 = 0.7598 | 875.54
323.15 K, x1 = 0.8133 | 866.63
323.15 K, x1 = 0.8732 | 857.15
323.15 K, x1 = 0.9239 | 849.51
333.15 K, x1 = 0.0673 | 1040.47
333.15 K, x1 = 0.1568 | 1009.3
333.15 K, x1 = 0.2249 | 987.86
333.15 K, x1 = 0.2935 | 968.02
333.15 K, x1 = 0.3687 | 948.04
333.15 K, x1 = 0.4312 | 932.71
333.15 K, x1 = 0.4921 | 918.76
333.15 K, x1 = 0.5638 | 903.47
333.15 K, x1 = 0.6304 | 890.23
333.15 K, x1 = 0.693 | 878.57
333.15 K, x1 = 0.7563 | 867.46
333.15 K, x1 = 0.8137 | 857.93
333.15 K, x1 = 0.8846 | 846.82
333.15 K, x1 = 0.9355 | 839.26
343.15 K, x1 = 0.0647 | 1032.84
343.15 K, x1 = 0.1491 | 1003.11
343.15 K, x1 = 0.2139 | 982.42
343.15 K, x1 = 0.2749 | 964.42
343.15 K, x1 = 0.3588 | 941.76
343.15 K, x1 = 0.4395 | 921.95
343.15 K, x1 = 0.5023 | 907.73
343.15 K, x1 = 0.5539 | 896.74
343.15 K, x1 = 0.6135 | 884.76
343.15 K, x1 = 0.675 | 873.12
343.15 K, x1 = 0.7523 | 859.44
343.15 K, x1 = 0.8132 | 849.34
343.15 K, x1 = 0.8643 | 841.29
343.15 K, x1 = 0.9247 | 832.25
353.15 K, x1 = 0.0734 | 1020.97
353.15 K, x1 = 0.1359 | 998.8
353.15 K, x1 = 0.1844 | 982.84
353.15 K, x1 = 0.2258 | 970
353.15 K, x1 = 0.2844 | 952.95
353.15 K, x1 = 0.3535 | 934.34
353.15 K, x1 = 0.4241 | 916.83
353.15 K, x1 = 0.4798 | 903.97
353.15 K, x1 = 0.5323 | 892.53
353.15 K, x1 = 0.6042 | 877.86
353.15 K, x1 = 0.6724 | 864.89
353.15 K, x1 = 0.7539 | 850.47
353.15 K, x1 = 0.8375 | 836.8
353.15 K, x1 = 0.9144 | 825.15

— the NIST ThermoML archive (doi:10.1016/j.jct.2004.04.004)
